Data on 9 molecules can be found in ChEMBL document CHEMBL1135618, “Design and pharmacology of N-[(3R)-1,2,3,4-tetrahydroisoquinolinium- 3-ylcarbonyl]-(1R)-1-(4-chlorobenzyl)- 2-[4-cyclohexyl-4-(1H-1,2,4-triazol- 1-ylmethyl)piperidin-1-yl]-2-oxoethylamine (1), a potent, selective, melanocortin subtype-4 receptor agonist” (J Med Chem, 2002).

One may read the EC50 as the midpoint of the concentration-response curve. A word on the IC50: it is the concentration that inhibits the measured activity by half. What is called bioavailability is the share of a dose that reaches the circulation, judged against a reference dose that is usually intravenous. A higher bioavailability goes with good availability. One may read the half-life as the time needed for the level to fall by half in the phase considered. High values mean slow loss, low ones fast loss.

The target in series [1] is T1, Melanocortin receptor 3 (Homo sapiens, UniProt P41968). Nature of the series: Evaluated for Functional Activity at MC3R as % of cAMP accumulation at 10 uM relative to alpha-MSH. Background: cAMP levels reflect the balance of adenylyl cyclase and phosphodiesterase activity.
For series [2], the target named is T2, Melanocortin receptor 4 (Homo sapiens, UniProt P32245). Nature of the series: Evaluated for Functional Activity at Melanocortin-4 receptor as effective concentration at 50% maximum CMP accumulation.
The target of series [3] is T2, Melanocortin receptor 4.
Description: Evaluated for binding affinity against Melanocortin-4 receptor by displacing [125I]-NDP-alpha-MSH radioligand expressed in CHO cells
Series [4] deals with T2, Melanocortin receptor 4. Description: Maximum percent cAMP accumulation at 10 uM relative to alpha-MSH at Melanocortin-4 receptor. The series is classed as functional.
In series [5] the target is T3, Melanocortin receptor 5 (Homo sapiens, UniProt P33032). Nature of the series: Evaluated for Functional Activity at MC5R as effective concentration at 50% maximum CMP accumulation.
Series [6] deals with T1, Melanocortin receptor 3. The following applies: 10 uM.
Description: Percentage of cAMP accumulation at 10 uM relative to alpha-MSH at human Melanocortin-3 receptor
Series [7] addresses Melanocyte-stimulating hormone receptor (Homo sapiens) (UniProt Q01726). The following applies: 10 uM.
Description: Percentage of cAMP accumulation at 10 uM relative to alpha-MSH at hMC1R
For series [8], the target named is T4, Melanocortin receptor 3 (Rattus norvegicus, UniProt P32244). Description: Functional activity as concentration at 50% maximum cAMP accumulation in rat Melanocortin-3 receptor (rMC3R).
The nature of series [9]: Evaluated for maximum time Tmax in rat at a dose 1 mg/kg (intravenous) and 10 mg/kg administered orally. The series is classed as functional, organism-based.
The nature of series [10]: Percent bioavailability in rat evaluated at a dose 1 mg/kg (intravenous) and 10 mg/kg administered orally and was evaluated for. Type of series: ADME, organism-based. The following applies: in vivo, po.
Series [11] concerns the target T5, Melanocortin receptor 5 (Rattus norvegicus, UniProt P35345). Description: Functional activity as concentration at 50% maximum cAMP accumulation in rat Melanocortin-5 receptor (rMC5R).
In series [12] the target is T3, Melanocortin receptor 5. Description: Functional activity as concentration at 50% maximum cAMP accumulation in human […] (MC5R) receptor.
Series [13] addresses Melanocortin receptor 4 (Rattus norvegicus) (UniProt P70596). The following applies: 10 uM.
Description: Percentage of cAMP accumulation at 10 uM relative to alpha-MSH at rat Melanocortin-4 receptor
For series [14], the target named is Melanocortin receptor 3 (Rattus norvegicus) (UniProt P32244). Description: Percentage of cAMP accumulation at 10 uM relative to alpha-MSH at rat Melanocortin-3 receptor. The series is classed as functional.
Series [15] in a line: Evaluated for plasma clearance in rat at a dose 1 mg/kg (intravenous) and 10 mg/kg administered orally. Type of series: ADME, organism-based.
Series [16] has as its target T4, Melanocortin receptor 3. Description: Evaluated for binding affinity against rat Melanocortin-3 receptor (rMC3R) by displacing [125I]-NDP-alpha-MSH radioligand expressed in CHO cells. Type of series: cell-based.
A short description of series [17]: Volume of distribution evaluated at a dose 0.2 mg/kg (intravenous) and 0.5 mg/kg administered orally in dog.
The target in series [18] is T6, Melanocortin receptor 4 (Rattus norvegicus, UniProt P70596). Description: Evaluated for binding affinity against rat Melanocortin-4 receptor (rMC4R) by displacing [125I]NDP-alpha-MSH radioligand expressed in CHO cells. The series is classed as cell-based.
Series [19] in a line: Volume of distribution evaluated at a dose 1 mg/kg (intravenous) and 10 mg/kg administered orally in rat. Type of series: functional, organism-based.
For series [20], the target named is T5, Melanocortin receptor 5. Nature of the series: Evaluated for binding affinity against rat Melanocortin-5 receptor (rMC5R) by displacing [125I]NDP-alpha-MSH radioligand expressed in CHO cells. The series is classed as cell-based.
The nature of series [21]: Half life in rat evaluated at a dose 1 mg/kg (intravenous) and 10 mg/kg administered orally and was evaluated for. Type of series: ADME, organism-based. The following applies: in vivo.
The nature of series [22]: Evaluated for Plasma clearance in dog at dose 0.2 mg/kg (intravenous) and 0.5 mg/kg administered orally. Type of series: ADME, organism-based, Canis lupus familiaris.
Series [23] in a line: Evaluated for % bioavailability in dogat a dose 0.2 mg/kg (intravenous) and 0.5 mg/kg administered orally. The series is classed as ADME, organism-based, Canis lupus familiaris. The following applies: dog, in vivo, po.
The target of series [24] is T1, Melanocortin receptor 3. Description: Maximum percentage of cAMP accumulation at 10 uM relative to alpha-MSH at MC3R. Type of series: functional.
Series [25] concerns the target T6, Melanocortin receptor 4. Description: Functional activity as concentration at 50% maximum cAMP accumulation in rat Melanocortin-4 receptor (rMC4R).
In series [26] the target is T3, Melanocortin receptor 5. To be noted: 10 uM.
Description: Percentage of cAMP accumulation at 10 uM relative to alpha-MSH at human Melanocortin 5 receptor
Series [27] has as its target T3, Melanocortin receptor 5. Nature of the series: Evaluated for binding affinity against human melanocortin 5 (hMC5R) receptor by displacing [125I]NDP-alpha-MSH radioligand expressed in CHO cells. The series is classed as cell-based.
Series [28] in a line: Evaluated for half life in dog at dose 0.2 mg/kg (intravenous) and 0.5 mg/kg administered orally. To be noted: in vivo. Type of series: ADME, organism-based, Canis lupus familiaris.
Series [29] in a line: Evaluated for maximum time Tmax in dog at dose 0.2 mg/kg (intravenous) and 0.5 mg/kg administered orally. The series is classed as functional, organism-based.
Series [30] concerns the target Melanocortin receptor 5 (Rattus norvegicus) (UniProt P35345). Nature of the series: Percentage of cAMP accumulation at 10 uM relative to alpha-MSH at rat Melanocortin-5 receptor. Type of series: functional.
The target of series [31] is T3, Melanocortin receptor 5. Description: Maximum percentage of cAMP accumulation at 10 uM relative to alpha-MSH at MC5R. The series is classed as functional.
The target in series [32] is Melanocortin receptor (M3 and M4) (Homo sapiens) (UniProt P32245+P41968). Description: Evaluated for selectivity for MC3R versus MC4R displacing [125I]NDP-alpha-MSH radioligand expressed in CHO cells. Type of series: cell-based.
In series [33] the target is T1, Melanocortin receptor 3. Description: Evaluated for Functional Activity at MC3R as effective concentration at 50% maximum CMP accumulation.
For series [34], the system named is Melanocortin receptor 5 + Melanocortin receptor 4 (Homo sapiens). Description: Evaluated for selectivity for MC5R versus MC4R displacing [125I]NDP-alpha-MSH radioligand expressed in CHO cells.

T3 sequence (P33032 whole entry): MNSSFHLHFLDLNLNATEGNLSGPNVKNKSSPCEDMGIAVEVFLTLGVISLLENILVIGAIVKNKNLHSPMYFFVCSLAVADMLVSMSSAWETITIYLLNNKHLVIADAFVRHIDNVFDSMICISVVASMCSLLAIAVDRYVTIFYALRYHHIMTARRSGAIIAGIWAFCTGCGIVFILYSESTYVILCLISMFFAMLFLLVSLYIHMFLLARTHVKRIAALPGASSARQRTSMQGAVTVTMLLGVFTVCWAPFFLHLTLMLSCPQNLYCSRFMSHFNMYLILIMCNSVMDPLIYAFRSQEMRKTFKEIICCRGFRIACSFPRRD
T1 sequence (P41968 whole entry): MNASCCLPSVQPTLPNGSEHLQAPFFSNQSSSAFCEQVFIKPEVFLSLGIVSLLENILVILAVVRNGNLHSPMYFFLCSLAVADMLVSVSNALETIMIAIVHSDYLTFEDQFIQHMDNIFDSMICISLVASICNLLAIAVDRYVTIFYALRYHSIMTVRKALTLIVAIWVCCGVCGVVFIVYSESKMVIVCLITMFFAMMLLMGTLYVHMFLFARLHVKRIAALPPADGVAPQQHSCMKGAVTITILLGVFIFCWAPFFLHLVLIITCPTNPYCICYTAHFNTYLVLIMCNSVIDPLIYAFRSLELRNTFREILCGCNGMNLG
T2 sequence (P32245 whole entry): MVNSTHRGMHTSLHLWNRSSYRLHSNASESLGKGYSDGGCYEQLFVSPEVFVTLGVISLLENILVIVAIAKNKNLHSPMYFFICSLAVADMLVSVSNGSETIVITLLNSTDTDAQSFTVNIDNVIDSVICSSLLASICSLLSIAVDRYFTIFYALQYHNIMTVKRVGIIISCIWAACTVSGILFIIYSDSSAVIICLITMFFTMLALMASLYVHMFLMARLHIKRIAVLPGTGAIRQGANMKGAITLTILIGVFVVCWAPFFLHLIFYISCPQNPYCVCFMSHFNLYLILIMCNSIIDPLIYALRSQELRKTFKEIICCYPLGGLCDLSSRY
T5 sequence (P35345 whole entry): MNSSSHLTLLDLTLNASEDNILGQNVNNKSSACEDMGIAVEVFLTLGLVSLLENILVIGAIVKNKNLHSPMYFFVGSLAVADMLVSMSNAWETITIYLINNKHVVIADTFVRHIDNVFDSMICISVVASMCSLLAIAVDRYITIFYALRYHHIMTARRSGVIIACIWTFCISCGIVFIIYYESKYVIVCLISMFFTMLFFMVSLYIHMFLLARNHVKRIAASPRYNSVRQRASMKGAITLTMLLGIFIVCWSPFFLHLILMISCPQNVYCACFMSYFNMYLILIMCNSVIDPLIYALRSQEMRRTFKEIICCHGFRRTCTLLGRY
T4 sequence (P32244 whole entry): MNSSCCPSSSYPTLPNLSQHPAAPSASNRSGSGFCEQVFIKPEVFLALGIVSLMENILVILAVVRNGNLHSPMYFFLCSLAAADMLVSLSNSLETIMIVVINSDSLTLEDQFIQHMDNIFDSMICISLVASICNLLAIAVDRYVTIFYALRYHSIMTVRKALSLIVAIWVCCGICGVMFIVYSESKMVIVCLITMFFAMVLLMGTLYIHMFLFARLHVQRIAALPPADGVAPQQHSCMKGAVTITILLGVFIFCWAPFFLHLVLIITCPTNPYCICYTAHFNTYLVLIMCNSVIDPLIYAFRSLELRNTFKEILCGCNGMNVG
T6 sequence (P70596 whole entry): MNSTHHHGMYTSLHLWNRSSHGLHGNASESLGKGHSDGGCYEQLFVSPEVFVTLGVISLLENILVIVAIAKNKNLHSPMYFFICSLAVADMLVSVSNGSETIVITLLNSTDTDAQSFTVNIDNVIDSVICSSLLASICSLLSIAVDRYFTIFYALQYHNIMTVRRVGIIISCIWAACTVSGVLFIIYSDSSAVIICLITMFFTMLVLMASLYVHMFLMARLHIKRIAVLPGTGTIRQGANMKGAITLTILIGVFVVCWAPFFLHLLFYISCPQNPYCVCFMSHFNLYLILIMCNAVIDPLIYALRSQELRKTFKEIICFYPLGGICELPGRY
Melanocortin receptor 5 (Rattus norvegicus), sequence (P35345 whole entry): as the sequence (P35345 whole entry) above
Melanocyte-stimulating hormone receptor (Homo sapiens), sequence (Q01726 whole entry, looked up): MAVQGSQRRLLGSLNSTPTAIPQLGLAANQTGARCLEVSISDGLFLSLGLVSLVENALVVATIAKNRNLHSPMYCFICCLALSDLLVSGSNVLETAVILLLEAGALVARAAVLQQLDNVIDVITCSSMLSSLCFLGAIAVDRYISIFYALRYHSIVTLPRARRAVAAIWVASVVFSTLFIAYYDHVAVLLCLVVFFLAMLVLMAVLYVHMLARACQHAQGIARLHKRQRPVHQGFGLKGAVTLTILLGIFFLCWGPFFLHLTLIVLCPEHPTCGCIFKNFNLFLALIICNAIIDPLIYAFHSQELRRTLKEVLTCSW
Melanocortin receptor 3 (Rattus norvegicus), sequence (P32244 whole entry): as the sequence (P32244 whole entry) above
Melanocortin receptor 4 (Rattus norvegicus), sequence (P70596 whole entry): as the sequence (P70596 whole entry) above

Regarding `Cn1nnc(CC2(C3CCCCC3)CCN(C(=O)[C@@H](Cc3ccc(Cl)cc3)NC(=O)[C@H]3Cc4ccccc4CN3)CC2)n1`, the Activity is 24% in series [1] and 87% in [4]. Further, the EC50 in series [2] was determined as 9.6 nM; in [5], 1000 nM. This molecule showed an IC50 in [3] of 1.2 nM.
Regarding `O=C(N[C@H](Cc1ccc(Cl)cc1)C(=O)N1CCC(Cn2cncn2)(C2CCCCC2)CC1)[C@H]1Cc2ccccc2CN1`, the Activation in series [6] is 32%; in [7], 95%; in [13] it was 99%; in series [14], 65%; in [26], 61%; in series [30], 58%. For the same molecule, the EC50 is 1320 nM in series [8]; over 3 µM in series [11]; 737 nM in [12]; 2.9 nM in series [25]; 736 nM in series [5]. Also, the Tmax in [9] is 1 h; in [29], 1.5 h. Further, the bioavailability in series [10] turned out to be 14%; in series [23], 16%. Also, the values for the clearance in [15] and in [22] were 84 mL/min/kg and 27.6 mL/min/kg, respectively. The IC50 in series [16] came to 1880 nM; in series [18], 0.6 nM; in series [20], 1570 nM; in [27], 326 nM. The Vdss in series [17] was 2.79 L/kg; in series [19], 3.6 L/kg. Further, the results for the half-life in [21] and in series [28] were 36 min and 72 min, respectively. The Activity in [24] was found to be 32%; in series [31] it was 61%.
With `CS(=O)(=O)N1CC2(CCN(C(=O)[C@@H](Cc3ccccc3)NC(=O)[C@@H](N)Cc3c[nH]cn3)CC2)c2ccccc21`, the EC50 in series [2] is 500 nM.
The molecule `CS(=O)(=O)N1CC2(CCN(C(=O)[C@@H](Cc3ccc4ccccc4c3)NC(=O)[C@@H](N)Cc3cnc[nH]3)CC2)c2ccccc21` had an IC50 in [3] of 108 nM. In other words, the sub-micromolar range.
As for `O=C(N[C@@H](Cc1ccc(Cl)cc1)C(=O)N1CCC(Cn2cncn2)(C2CCCCC2)CC1)[C@@H]1Cc2ccccc2CN1`, the results for the Activity in [24], in [4] and in [31] were 4%, 34% and 5%, respectively.
`O=C(N[C@@H](Cc1ccc(Cl)cc1)C(=O)N1CCC(Cn2cncn2)(C2CCCCC2)CC1)[C@H]1Cc2ccccc2CN1`: the Activity in series [24] worked out at 1%; in [4], 9%; in [31], 2%.
Take `O=C(N[C@H](Cc1ccc(Cl)cc1)C(=O)N1CCC(Cn2cncn2)(C2CCCCC2)CC1)[C@@H]1Cc2ccccc2CN1`: the Activity in series [24] stood at 7%; in series [4], 67%; in series [31], 19%. Moreover, it took 271 nM to reach a half-maximal effect in series [5] (EC50).
As for `Cn1nnnc1CC1(C2CCCCC2)CCN(C(=O)[C@@H](Cc2ccc(Cl)cc2)NC(=O)[C@H]2Cc3ccccc3CN2)CC1`, the Selectivity in series [32] is 277; in series [34] it was 100. Moreover, the Activity was found to be 50% in [24], 103% in series [4] and 51% in series [31]. The values for the EC50 in series [2], in series [33] and in series [5] were 0.6 nM, 59 nM and 127 nM, respectively. Further, the IC50 in [3] came out at 0.3 nM.
As to `O=C(N[C@H](Cc1ccc(Cl)cc1)C(=O)N1CCC(Cc2nnn[nH]2)(C2CCCCC2)CC1)[C@H]1Cc2ccccc2CN1`, the Selectivity stood at 53 in [32] and 19 in [34]. The Activity was 10% in [24], 79% in series [4] and 15% in [31]. The molecule also registered an EC50 in [2] of 771 nM. The molecule further came in with an IC50 in [3] of 238 nM.
